Here are results for 26 molecules from US20260159511A1, “SMALL MOLECULE STING ANTAGONISTS” (CURADEV PHARMA PVT. LTD., priority 2021, published 2026).

The test relates to IRF pathway in THP1-Dual™ cells, THP-1 (HAQ). The experiment in a line: Reporter gene expression assay in THP-1 cells (THP1-Dual, IRF pathway Lucia luciferase reporter, 2′,3′-cGAMP stimulation). The test is classed as cell-based, human. The settings on record: Homo sapiens; THP1-Dual cells preincubated with compound 10 minutes, stimulation with 5 μM 2′,3′-cGAMP for 20 hr, QUANTI-Luc readout of the supernatant; read-out: THP-1 (HAQ) Activity (IC50 value range). In outline: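 THP-1-derived THP1-Dual cells (5×10^4) preincubated with compound for 10 minutes, then stimulated with 5 μM 2′,3′-cGAMP. After 20 hr, secreted Lucia luciferase (IRF pathway reporter) measured in supernatant by luminescence.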

For `O=C(Nc1ccc2c(c1)OCCN2Cc1c(F)cccc1Cl)Nc1c[nH]c2ccccc12` [Example 76, 1-(4-(2-chloro-6-fluorobenzyl)-3,4-dihydro-2H-benzo[b][1,4]oxazin-7-yl)-3-(1H-indol-3-yl)urea], the IC50 is under 1 µM. In the case of `O=C(Nc1ccc2c(c1)SCCN2Cc1c(F)cccc1Cl)Nc1c[nH]c2ccccc12` [Example 77, 1-(4-(2-chloro-6-fluorobenzyl)-3,4-dihydro-2H-benzo[b][1,4]thiazin-7-yl)-3-(1H-indol-3-yl)urea], the half-maximal inhibitory concentration (IC50) is under 1 µM.

Regarding `CN1CCSc2ccc(NC(=O)Nc3c[nH]c4ccccc34)cc21` [Example 78, 1-(1H-indol-3-yl)-3-(4-methyl-3,4-dihydro-2H-benzo[b][1,4]thiazin-6-yl)urea], the IC50 was under 1 µM.

On to `O=C(Nc1ccc2c(c1)N(C(=O)c1ccccc1)CCS2)Nc1c[nH]c2ccccc12` [Example 79, 1-(4-benzoyl-3,4-dihydro-2H-benzo[b][1,4]thiazin-6-yl)-3-(1H-indol-3-yl)urea], for which the IC50 was under 1 µM. Then `O=C(Nc1ccc2c(c1)SCCN2C(=O)c1ccccc1)Nc1c[nH]c2ccccc12` [Example 80, 1-(4-benzoyl-3,4-dihydro-2H-benzo[b][1,4]thiazin-7-yl)-3-(1H-indol-3-yl)urea], with under 1 µM; and `O=C(Nc1ccc2c(c1)SCCN2Cc1c(F)cccc1F)Nc1c[nH]c2ccccc12` [Example 81, 1-(4-(2,6-difluorobenzyl)-3,4-dihydro-2H-benzo[b][1,4]thiazin-7-yl)-3-(1H-indol-3-yl)urea], with under 1 µM. For `Cc1cccc(F)c1CN1CCSc2cc(NC(=O)Nc3c[nH]c4ccccc34)ccc21` [Example 82, 1-(4-(2-fluoro-6-methylbenzyl)-3,4-dihydro-2H-benzo[b][1,4]thiazin-7-yl)-3-(1H-indol-3-yl)urea], the IC50 was under 1 µM.

Turning to `CC1CN(Cc2ccccc2)c2cc(NC(=O)Nc3c[nH]c4ccccc34)ccc2S1` (centres unmarked) [Example 83, 1-(4-benzyl-2-methyl-3,4-dihydro-2H-benzo[b][1,4]thiazin-6-yl)-3-(1H-indol-3-yl)urea], the IC50 was under 1 µM. For the molecule `CC1CN(Cc2c(F)cccc2Cl)c2cc(NC(=O)Nc3c[nH]c4ccccc34)ccc2S1` (centres unmarked) [Example 84, 1-(4-(2-chloro-6-fluorobenzyl)-2-methyl-3,4-dihydro-2H-benzo[b][1,4]thiazin-6-yl)-3-(1H-indol-3-yl)urea], the 50% inhibitory concentration (IC50) is under 1 µM. In the case of `CC1CN(Cc2ccccc2)c2ccc(NC(=O)Nc3c[nH]c4ccccc34)cc2S1` (centres unmarked) [Example 85, 1-(4-benzyl-2-methyl-3,4-dihydro-2H-benzo[b][1,4]thiazin-7-yl)-3-(1H-indol-3-yl)urea], the IC50 was under 1 µM. As for `Cc1cc(CN2CCSc3cc(NC(=O)Nc4c[nH]c5ccccc45)ccc32)on1` [Example 86, 1-(1H-indol-3-yl)-3-(4-((3-methylisoxazol-5-yl)methyl)-3,4-dihydro-2H-benzo[b][1,4]thiazin-7-yl)urea], the IC50 is under 1 µM. Turning to `N#Cc1ccccc1CN1CCSc2cc(NC(=O)Nc3c[nH]c4ccccc34)ccc21` [Example 87, 1-(4-(2-cyanobenzyl)-3,4-dihydro-2H-benzo[b][1,4]thiazin-7-yl)-3-(1H-indol-3-yl)urea], the half-maximal inhibitory concentration (IC50) was under 1 µM.

As to `O=C(Nc1ccc2c(c1)SCCN2Cc1cc(F)cc(F)c1)Nc1c[nH]c2ccccc12` [Example 88, 1-(4-(3,5-difluorobenzyl)-3,4-dihydro-2H-benzo[b][1,4]thiazin-7-yl)-3-(1H-indol-3-yl)urea], the IC50 is under 1 µM.

As to `O=C(Nc1ccc2c(c1)SCCN2Cc1ccccn1)Nc1c[nH]c2ccccc12` [Example 89, 1-(1H-indol-3-yl)-3-(4-(pyridin-2-ylmethyl)-3,4-dihydro-2H-benzo[b][1,4]thiazin-7-yl)urea], the IC50 was under 1 µM. Regarding `O=C(Nc1ccc2c(c1)N(Cc1cc(F)cc(F)c1)CCO2)Nc1c[nH]c2ccccc12` [Example 90, 1-(4-(3,5-difluorobenzyl)-3,4-dihydro-2H-benzo[b][1,4]oxazin-6-yl)-3-(1H-indol-3-yl)urea], the IC50 is under 1 µM. As for `O=C(Nc1ccc2c(c1)N(Cc1cc(F)cc(F)c1)CCO2)Nc1c[nH]c2ccc(F)cc12` [Example 91, 1-(4-(3,5-difluorobenzyl)-3,4-dihydro-2H-benzo[b][1,4]oxazin-6-yl)-3-(5-fluoro-1H-indol-3-yl)urea], the IC50 is under 1 µM. As for `O=C(Nc1ccc2c(c1)N(Cc1cc(F)cc(F)c1)CCS2)Nc1c[nH]c2ccccc12` [Example 92, 1-(4-(3,5-difluorobenzyl)-3,4-dihydro-2H-benzo[b][1,4]thiazin-6-yl)-3-(1H-indol-3-yl)urea], the IC50 is under 1 µM.

For `O=C(Nc1ccc2c(c1)N(Cc1cc(F)cc(F)c1)CCS2)Nc1c[nH]c2ccc(F)cc12` [Example 93, 1-(4-(3,5-difluorobenzyl)-3,4-dihydro-2H-benzo[b][1,4]thiazin-6-yl)-3-(5-fluoro-1H-indol-3-yl)urea], the IC50 was under 1 µM. Regarding `CC1CN(Cc2cc(F)cc(F)c2)c2cc(NC(=O)Nc3c[nH]c4ccccc34)ccc2S1` (centres unmarked) [Example 94, 1-(4-(3,5-difluorobenzyl)-2-methyl-3,4-dihydro-2H-benzo[b][1,4]thiazin-6-yl)-3-(1H-indol-3-yl)urea], the half-inhibitory concentration (IC50) was under 1 µM.

With `NC(=O)c1ccccc1CN1CCSc2cc(NC(=O)Nc3c[nH]c4ccccc34)ccc21` [Example 95, 2-((7-(3-(1H-indol-3-yl)ureido)-2,3-dihydro-4H-benzo[b][1,4]thiazin-4-yl)methyl)benzamide], the half-maximal inhibitory concentration (IC50) was under 1 µM. For `Cc1cc(CN2CCSc3cc(NC(=O)Nc4c[nH]c5ccccc45)ccc32)no1` [Example 96, 1-(1H-indol-3-yl)-3-(4-((5-methylisoxazol-3-yl)methyl)-3,4-dihydro-2H-benzo[b][1,4]thiazin-7-yl)urea], the half-maximal inhibitory concentration (IC50) was under 1 µM. Then `CC1CN(Cc2ccccc2)c2cc(NC(=O)Nc3c[nH]c4ccc(F)cc34)ccc2S1` (centres unmarked) [Example 97, 1-(4-benzyl-2-methyl-3,4-dihydro-2H-benzo[b][1,4]thiazin-6-yl)-3-(5-fluoro-1H-indol-3-yl)urea], with under 1 µM; and `O=C(Nc1ccc2c(c1)N(Cc1ccccc1)CCS2)Nc1c[nH]c2cc(F)ccc12` [Example 98, 1-(4-benzyl-3,4-dihydro-2H-benzo[b][1,4]thiazin-6-yl)-3-(6-fluoro-1H-indol-3-yl)urea], with under 1 µM; and `O=C(Nc1ccc2c(c1)N(Cc1ccccc1)CCS2)Nc1c[nH]c2ccc(F)cc12` [Example 99, 1-(4-benzyl-3,4-dihydro-2H-benzo[b][1,4]thiazin-6-yl)-3-(5-fluoro-1H-indol-3-yl)urea], with under 1 µM. `O=C(Nc1ccc2c(c1)N(Cc1ccccc1)CCS2)Nc1c[nH]c2ncc(F)cc12` [Example 100, 1-(4-benzyl-3,4-dihydro-2H-benzo[b][1,4]thiazin-6-yl)-3-(5-fluoro-1H-pyrrolo[2,3-b]pyridin-3-yl)urea]: the 50% inhibitory concentration (IC50) is under 1 µM. As for `O=C(Nc1ccc2c(c1)N(Cc1cc(F)cc(Cl)c1)CCS2)Nc1c[nH]c2ccc(F)cc12` [Example 101, 1-(4-(3-chloro-5-fluorobenzyl)-3,4-dihydro-2H-benzo[b][1,4]thiazin-6-yl)-3-(5-fluoro-1H-indol-3-yl)urea], the IC50 was under 1 µM.
